#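 96-well plates; 48 h exposure; 5 concentrations. Endpoints by linear interpolation between flanking doses. Not reached: highest tested concentration assigned. Here, GI50 denotes the concentration required for 50% inhibition of growth. The concentration for full growth arrest is given as TGI.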
# Tests used:
# Assay in all cases: NCI-60 cell line screen, 48 h
# [1] = system: T-47D breast
# [2] = system: HOP-18 NSCLC
# [3] = system: RXF-631 renal
# [4] = system: DLD-1 colon
# [5] = system: SNB-78 CNS
# [6] = system: XF 498 CNS
# [7] = system: DMS 273 small cell lung
# [8] = system: LXFL 529 NSCLC
# [9] = system: MDA-N
Structure (SMILES),GI50 [1] [µM],TGI [1] [µM],TGI [2] [µM],TGI [4] [µM],TGI [5] [µM],TGI [6] [µM],TGI [7] [µM],TGI [8] [µM],further results
COc1cccc2c(=O)c3c(sc12)c(N1CCNCC1)nc1ccccc13,1.9,4.57,–,–,–,–,–,–,–
O=C(O)[C@H](NS(=O)(=O)c1ccc([N+](=O)[O-])cc1)c1ccccc1,–,–,> 100,> 100,> 100,> 100,> 100,> 100,TGI [3]: > 100 µM
COc1cc(/C=C(\C#N)c2ccccc2)cc(OC)c1,–,–,–,> 100,> 100,> 100,–,> 100,–
O=C1CSC(/C(=N/Nc2ccccc2)c2nc3ccccc3[nH]2)=N1,–,–,–,> 100,> 100,73.4,47.3,> 100,–
COc1ccc(C(=O)COc2ccc(/C=C3\COc4ccc(OC)cc4C3=O)cc2)cc1,19.1,96.6,–,–,–,–,–,–,–
C/C(N=NC(=S)N(C)C)=C1\C=CC=CN1O,–,> 100,> 100,> 21.2,> 100,–,> 100,> 100,TGI [9]: > 100 µM; TGI [3]: > 100 µM
O=C(NCO)NCOCn1c(=O)n(CO)c(=O)n(CO)c1=O,–,–,> 100,64.4,> 73.9,55.5,–,42.8,TGI [3]: > 100 µM
C=C1C(=O)OC2/C=C(\COC(C)=O)CCC(OC(C)=O)C3=CC(OC3=O)C12 (centres undefined),–,53.4,–,9.92,9.55,5.33,21.7,3.56,TGI [3]: 48 µM
O=C1OC2CCCC[C@@H]2C2C[C@]34CCCCC3[C@@H](C(=O)O4)C12 (some centres undefined),–,–,> 100,> 100,> 100,> 100,–,> 100,–
O=C1CCCC[C@H]1[C@H]1CCC[C@@H]([C@H]2CCCCC2=O)C1=O,–,–,> 100,> 100,–,> 100,> 100,> 100,TGI [3]: > 100 µM
O=C1CC2c3ccccc3CCC2c2ccccc21 (centres undefined),–,> 100,–,–,–,–,–,–,TGI [9]: 21.4 µM
C=C1CCC(CC[C@@H]2CC[C@]3(OC2)O[C@@]2(O)CC[C@]3(C)OC2(C)C)C(C)(C)[C@H]1C/C=C1/C(=O)OC[C@@H]1O (some centres undefined),–,6.15,–,–,–,–,–,–,TGI [9]: 4.36 µM
Br[C](Br)(Br)[Hg][c]1ccccc1,9.56,43.7,–,–,–,–,–,–,GI50 [9]: 17.6 µM; TGI [9]: 38.7 µM
O=S(=O)(Nc1cc(Sc2cccc3cccnc23)c(O)c2ccccc12)c1ccccc1,1.56,4.79,–,–,–,–,–,–,–
N#CC1CC2(C1)OCCS2 (centres undefined),–,–,–,> 100,> 100,–,> 100,> 100,–
CCCCON(OC(=O)c1ccc2ccc3cccc4ccc1c2c34)C(C)=O,29.7,> 100,–,–,–,–,–,–,–
O=C(O)C1C(Br)(c2ccccc2)C1(Br)c1ccccc1 (centres undefined),–,> 100,–,–,–,–,–,–,–
S=C1OC2CCCC[C@H]2O1 (some centres undefined),–,–,> 100,> 100,> 100,> 100,> 100,> 100,TGI [3]: > 100 µM

Structure (SMILES),GI50 [1] [µM],TGI [1] [µM],TGI [2] [µM],TGI [4] [µM],TGI [5] [µM],TGI [6] [µM],TGI [7] [µM],TGI [8] [µM],further results
CC(=O)C(=CN1CCN(C(=O)c2ccco2)C1=S)C(C)=O,3.65,12.6,–,–,–,–,–,–,–
ClCC[N+]12CC[N+](CCCl)(CC1)C2,–,> 100,–,–,–,–,–,–,TGI [9]: > 100 µM
CCOC(=O)NC(=O)c1cn(CCCOC(=O)CCCCCCCCCCC(=O)OCCCn2cc(C(=O)NC(=O)OCC)c(=O)[nH]c2=O)c(=O)[nH]c1=O,–,–,> 100,> 100,> 100,> 100,–,> 100,TGI [3]: > 100 µM
O=C1NC2OC(C(O)CO)C(O)C2O1 (centres undefined),–,–,> 100,–,–,> 100,> 100,> 100,–
C[C@H](O)C(=O)N1CCC(CCn2c(Sc3cc4c(cc3Br)OCO4)nc3c(N)ncnc32)CC1,2.15,> 100,–,–,–,–,–,–,–
O=c1c2ccccc2c(=O)c2c1[nH]c1c(-c3ccccc3)c(-c3ccccc3)c(=O)c12,1.8,7.76,–,–,–,–,–,–,–
Cc1ncc(CCCN(C)C)cc1Nc1ncc2c(n1)-c1ccc(C(F)(F)F)cc1NC(=S)C2,0.814,33.8,–,–,–,–,–,–,–
O=C1[C@@H]2C(c3ccccc3F)=NO[C@@H]2C(=O)N1c1ccc(Cc2ccc(N3C(=O)[C@H]4C(c5ccccc5F)=NO[C@H]4C3=O)cc2)cc1,–,–,> 100,> 100,> 100,> 100,> 100,> 100,TGI [3]: > 100 µM
Cc1ccc(-c2nc3ccc(Cl)cc3c(=O)n2N2C(=O)CSC2c2ccccc2Cl)cc1 (centres undefined),3.82,> 100,–,–,–,–,–,–,–
COc1cc(/C=C/c2ccc(OC)c(OC)c2)cc(OC)c1,–,> 100,–,–,–,–,–,–,–
CC(C)C[C@H](NC(=O)/C=C/Cn1ccc2ccccc2c1=O)B(O)O,2.68,15.3,–,–,–,–,–,–,–
Clc1ccc(C=Nc2ccc3c(c2)Cc2ccccc2-3)c(Cl)c1,–,> 100,–,–,–,–,–,–,TGI [9]: > 100 µM
N#Cc1cccnc1Cl,–,–,> 100,> 100,> 100,> 100,> 100,> 100,TGI [3]: > 100 µM
O=C1CC2CCCC23CC2(CCN13)OCCO2 (centres undefined),–,–,> 100,> 100,> 100,> 100,> 100,> 100,TGI [3]: > 100 µM
CC1=C[C@H]2c3c(c(O)c(O)c4oc(-c5ccccc5)cc(=O)c34)[C@H](c3cc(O)c(O)c4oc(-c5ccccc5)cc(=O)c34)[C@H]2C(C)(C)C1,1.02,17.1,–,–,–,–,–,–,–
COc1cc2[nH]c(C(=O)c3cc(OC)c(OC)c(OC)c3)c(N)c2cc1C#CC1CC1,3.02,> 100,–,–,–,–,–,–,–
NC(=O)NCc1c(C(N)=O)ncn1Cc1ccccc1,–,–,> 100,> 100,> 100,> 100,> 100,> 100,–

# From PubChem BioAssay (NCI)
